In US10988478B1, “Pyrazolo[1,5a]pyrimidine derivatives as IRAK4 modulators” (Genentech, Inc., priority 2015, dated 2021):

target: human IRAK4 (Homo sapiens (Human), UniProt Q9NWZ3); test: IRAK4 kinase inhibition, Transcreener fluorescence polarization ADP assay; assay type: biochemical; details: recombinant full-length His6-IRAK4; 125 uM ATP; 90 min; Ki computed using ATP Km 642 uM
Description: Compounds were assayed for inhibition of human IRAK4 and IRAK1 catalytic activity using recombinant enzyme produced from insect cells. Full-length IRAK4 protein, carrying an N-terminal His6-Tag, was obtained from Life Technologies (Carlsbad, Calif., USA). The IRAK1 construct was produced internally and was comprised of IRAK1 residues Arg194 to Ser712, preceded by an NH2-terminal His6 tag and the coding sequence for glutathione-S-transferase.

human IRAK4, sequence (Q9NWZ3 whole entry, the tested form may be a part): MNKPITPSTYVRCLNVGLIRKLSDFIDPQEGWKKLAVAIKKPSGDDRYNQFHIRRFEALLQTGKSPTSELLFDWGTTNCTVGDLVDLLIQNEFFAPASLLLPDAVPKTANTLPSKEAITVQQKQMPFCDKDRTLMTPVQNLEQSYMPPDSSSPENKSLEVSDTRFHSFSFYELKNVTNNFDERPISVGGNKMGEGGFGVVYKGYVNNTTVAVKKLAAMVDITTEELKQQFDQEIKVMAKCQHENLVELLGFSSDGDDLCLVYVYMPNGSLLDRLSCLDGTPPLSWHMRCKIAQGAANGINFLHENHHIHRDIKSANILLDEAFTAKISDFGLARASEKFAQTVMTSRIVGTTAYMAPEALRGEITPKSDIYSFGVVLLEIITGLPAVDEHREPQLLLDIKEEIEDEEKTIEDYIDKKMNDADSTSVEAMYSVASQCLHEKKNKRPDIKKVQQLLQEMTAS

Ki [nM] | Structure (SMILES)
11 | C[C@@]1(CO)Cc2cc(NC(=O)c3cnn4cccnc34)c(N3CCC4(CC3)CNC4=O)cc2O1 [Example 321, (S)-N-(2-(hydroxymethyl)-2-methyl-6-(1-oxo-2,7-diazaspiro[3.5]nonan-7-yl)-2,3-dihydrobenzofuran-5-yl)pyrazolo[1,5-a]pyrimidine-3-carboxamide]
35 | CC1(CO)Cc2cc(NC(=O)c3cnn4cccnc34)c(N3CC4C(CO)C4C3)cc2O1 (stereo not shown) [Example 322, N-(2-(hydroxymethyl)-6-(6-(hydroxymethyl)-3-azabicyclo[3.1.0]hexan-3-yl)-2-methyl-2,3-dihydrobenzofuran-5-yl)pyrazolo[1,5-a]pyrimidine-3-carboxamide]
4.2 | CC(C)(O)C1CCN(c2cc3c(cc2NC(=O)c2cnn4cccnc24)C[C@@](C)(CO)O3)CC1 [Example 323, N-[(2S)-2-(Hydroxymethyl)-6-[4-(1-hydroxy-1-methyl-ethyl)-1-piperidyl]-2-methyl-3H-benzofuran-5-yl]pyrazolo[1,5-α]pyrimidine-3-carboxamide]
4.8 | CC(C)(O)C1CCN(c2cc3c(cc2NC(=O)c2cnn4cccnc24)C[C@](C)(CO)O3)CC1 [Example 324, N-[(2R)-2-(Hydroxymethyl)-6-[4-(1-hydroxy-1-methyl-ethyl)-1-piperidyl]-2-methyl-3H-benzofuran-5-yl]pyrazolo[1,5-α]pyrimidine-3-carboxamide]
6 | Cc1cnc2c(C(=O)Nc3cc4c(cc3N3CCN(CC(F)F)CC3)OC(C)(CO)C4)cnn2c1 (stereo not shown) [Example 325, N-(6-(4-(2,2-Difluoroethyl)piperazin-1-yl)-2-(hydroxymethyl)-2-methyl-2,3-dihydrobenzofuran-5-yl)-6-methylpyrazolo[1,5-a]pyrimidine-3-carboxamide]
2.7 | Cc1cnc2c(C(=O)Nc3cc4c(cc3N3CCC(F)(CO)CC3)OC(C)(CO)C4)cnn2c1 (stereo not drawn) [Example 328, N-(6-(4-Fluoro-4-(hydroxymethyl)-piperidin-1-yl)-2-(hydroxymethyl)-2-methyl-2,3-dihydrobenzofuran-5-yl)-6-methylpyrazolo[1,5-α]pyrimidine-3-carboxamide]
6 | C[C@@]1(O)CCCN(c2cc3c(cc2NC(=O)c2cnn4cccnc24)C[C@](C)(CO)O3)CC1 [Example 329, N-((R)-6-((R)-4-hydroxy-4-methylazepan-1-yl)-2-(hydroxymethyl)-2-methyl-2,3-dihydrobenzofuran-5-yl)pyrazolo[1,5-a]pyrimidine-3-carboxamide]
6 | C[C@]1(O)CCCN(c2cc3c(cc2NC(=O)c2cnn4cccnc24)C[C@](C)(CO)O3)CC1 [Example 330, N-((R)-6-((S)-4-hydroxy-4-methylazepan-1-yl)-2-(hydroxymethyl)-2-methyl-2,3-dihydrobenzofuran-5-yl)pyrazolo[1,5-a]pyrimidine-3-carboxamide]
6 | C[C@]1(O)CCCN(c2cc3c(cc2NC(=O)c2cnn4cccnc24)C[C@@](C)(CO)O3)CC1 [Example 332, N-((S)-6-((S)-4-hydroxy-4-methylazepan-1-yl)-2-(hydroxymethyl)-2-methyl-2,3-dihydrobenzofuran-5-yl)pyrazolo[1,5-a]pyrimidine-3-carboxamide]
2 | C[C@]1(CO)Cc2cc(NC(=O)c3cnn4cccnc34)c(N3CCC(C#N)CC3)cc2O1 [Example 335, (R)-N-(6-(4-cyanopiperidin-1-yl)-2-(hydroxymethyl)-2-methyl-2,3-dihydrobenzofuran-5-yl)pyrazolo[1,5-a]pyrimidine-3-carboxamide]
3 | C[C@@]1(CO)Cc2cc(NC(=O)c3cnn4cccnc34)c(N3CCC(C#N)CC3)cc2O1 [Example 336, (S)-N-(6-(4-cyanopiperidin-1-yl)-2-(hydroxymethyl)-2-methyl-2,3-dihydrobenzofuran-5-yl)pyrazolo[1,5-a]pyrimidine-3-carboxamide]
4 | C[C@]1(CO)Cc2cc(NC(=O)c3cnn4cccnc34)c(N3CCC(C4(O)CC4)CC3)cc2O1 [Example 341, N-[(2R)-6-[4-(1-hydroxycyclopropyl)-1-piperidyl]-2-(hydroxymethyl)-2-methyl-3H-benzofuran-5-yl]pyrazolo[1,5-a]pyrimidine-3-carboxamide]
3.9 | C[C@@]1(CO)Cc2cc(NC(=O)c3cnn4cccnc34)c(N3CCC(C4(O)CC4)CC3)cc2O1 [Example 342, N-[(2S)-6-[4-(1-hydroxycyclopropyl)-1-piperidyl]-2-(hydroxymethyl)-2-methyl-3H-benzofuran-5-yl]pyrazolo[1,5-a]pyrimidine-3-carboxamide]
5 | CCC(=O)C1CCN(c2cc3c(cc2NC(=O)c2cnn4cccnc24)CC(C)(CO)O3)CC1 (stereo not shown) [Example 343, N-[2-(Hydroxymethyl)-2-methyl-6-(4-propanoyl-1-piperidyl)-3H-benzofuran-5-yl]pyrazolo[1,5-a]pyrimidine-3-carboxamide]
890 | C[C@]1(CO)Cc2cc(NC(=O)c3cnn4cccnc34)c(N3C[C@@H]4[C@H](C3)[C@@H]4C(N)=O)cc2O1 [Example 348, N-((R)-6-((1R,5S,6S)-6-carbamoyl-3-azabicyclo[3.1.0]hexan-3-yl)-2-(hydroxymethyl)-2-methyl-2,3-dihydrobenzofuran-5-yl)pyrazolo[1,5-a]pyrimidine-3-carboxamide]
1100 | C[C@@]1(CO)Cc2cc(NC(=O)c3cnn4cccnc34)c(N3C[C@@H]4[C@H](C3)[C@@H]4C(N)=O)cc2O1 [Example 349, N-((S)-6-((1R,5S,6R)-6-carbamoyl-3-azabicyclo[3.1.0]hexan-3-yl)-2-(hydroxymethyl)-2-methyl-2,3-dihydrobenzofuran-5-yl)pyrazolo[1,5-a]pyrimidine-3-carboxamide]
2 | CC1(CO)Cc2cc(NC(=O)c3cnn4cccnc34)c(N3CCC(C(O)C(F)F)CC3)cc2O1 (stereo not shown) [Example 352, N-(6-(4-(2,2-Difluoro-1-hydroxyethyl)piperidin-1-yl)-2-(hydroxymethyl)-2-methyl-2,3-dihydrobenzofuran-5-yl)pyrazolo[1,5-a]pyrimidine-3-carboxamide]
3 | CC(C)(O)[C@]1(C)Cc2cc(NC(=O)c3cnn4cccnc34)c(N3CCC(CO)CC3)cc2O1 [Example 354, (S)—N-(6-(4-(Hydroxymethyl)piperidin-1-yl)-2-(2-hydroxypropan-2-yl)-2-methyl-2,3-dihydrobenzofuran-5-yl)pyrazolo[1,5-a]pyrimidine-3-carboxamide]
6 | CC(C)(O)[C@@]1(C)Cc2cc(NC(=O)c3cnn4cccnc34)c(N3CCC(CO)CC3)cc2O1 [Example 355, (R)—N-(6-(4-(Hydroxymethyl)piperidin-1-yl)-2-(2-hydroxypropan-2-yl)-2-methyl-2,3-dihydrobenzofuran-5-yl)pyrazolo[1,5-a]pyrimidine-3-carboxamide]
410 | CC1(C)Cc2cc(NC(=O)c3cnn4cccnc34)c(C3CCN(CCO)CC3)cc2O1 [Example 357, N-(6-(1-(2-Hydroxyethyl)piperidin-4-yl)-2,2-dimethyl-2,3-dihydrobenzofuran-5-yl)pyrazolo[1,5-a]pyrimidine-3-carboxamide]
510 | CC1(C)Oc2cc(NC(=O)c3cnn4cccnc34)c(N3CCOCC3)cc2C1O (stereo not shown) [Example 358, N-(3-Hydroxy-2,2-dimethyl-5-morpholino-2,3-dihydrobenzofuran-6-yl)pyrazolo[1,5-a]pyrimidine-3-carboxamide]
260 | CC1(C)Oc2cc(NC(=O)c3cnn4cccnc34)c(N3CCOCC3)cc2C1=O [Example 359, N-(2,2-dimethyl-5-morpholino-3-oxo-2,3-dihydrobenzofuran-6-yl)pyrazolo[1,5-a]pyrimidine-3-carboxamide]
6.3 | CC(C)(O)[C@@]1(C)Cc2cc(NC(=O)c3cnn4cccnc34)c(N3CCN(CC(F)F)CC3)cc2O1 [Example 360, (R)—N-(6-(4-(2,2-Difluoroethyl)piperazin-1-yl)-2-(2-hydroxypropan-2-yl)-2-methyl-2,3-dihydrobenzofuran-5-yl)pyrazolo[1,5-a]pyrimidine-3-carboxamide]
9.2 | CC(C)(O)[C@]1(C)Cc2cc(NC(=O)c3cnn4cccnc34)c(N3CCN(CC(F)F)CC3)cc2O1 [Example 361, (S)—N-(6-(4-(2,2-Difluoroethyl)piperazin-1-yl)-2-(2-hydroxypropan-2-yl)-2-methyl-2,3-dihydrobenzofuran-5-yl)pyrazolo[1,5-a]pyrimidine-3-carboxamide]
6.7 | CC1(COC(F)F)Cc2cc(NC(=O)c3cnn4cccnc34)c(N3CCN(CC(F)F)CC3)cc2O1 (stereo not shown) [Example 362, N-(6-(4-(2,2-difluoroethyl)piperazin-1-yl)-2-((difluoromethoxy)methyl)-2-methyl-2,3-dihydrobenzofuran-5-yl)pyrazolo[1,5-a]pyrimidine-3-carboxamide]
5.3 | CC(C)(O)C1(C)Cc2cc(NC(=O)c3cnn4cccnc34)c(N3CCC(CO)CC3)cc2O1 (stereo not shown) [Example 363, N-(6-(4-(hydroxymethyl)piperidin-1-yl)-2-(2-hydroxypropan-2-yl)-2-methyl-2,3-dihydrobenzofuran-5-yl)pyrazolo[1,5-a]pyrimidine-3-carboxamide]
3.7 | CC1(C(F)F)Cc2cc(NC(=O)c3cnn4cccnc34)c(N3CCN(CC(F)F)CC3)cc2O1 (stereo not shown) [Example 364, N-(6-(4-(2,2-Difluoroethyl)piperazin-1-yl)-2-(difluoromethyl)-2-methyl-2,3-dihydrobenzofuran-5-yl)pyrazolo[1,5-a]pyrimidine-3-carboxamide]

Structure (SMILES) | Ki [nM]
CC(C)(O)C1(C)Cc2cc(NC(=O)c3cnn4cccnc34)c(N3CCN(CC(N)=O)CC3)cc2O1 (stereo not shown) [Example 356, N-[6-[4-(2-amino-2-oxo-ethyl)piperazin-1-yl]-2-(1-hydroxy-1-methyl-ethyl)-2-methyl-3H-benzofuran-5-yl]pyrazolo[1,5-a]pyrimidine-3-carboxamide] | 4
